The values that follow come from paper PMC8568899, “Molecular mechanisms of the CdnG-Cap5 antiphage defense system employing 3′,2′-cGAMP as the second messenger” (Nature Communications, 2021).

Molecules are shown by their SMILES. Changes are numbered by the printed parent chain.

What all share (assay): DNA degradation, agarose gel
What all share (assay type): biochemical

In test [1] the target is T1, AsCap5 (Asticcacaulis sp., UniProt Z9IC27YPF2, D220A).
T1 construct: full length; E. coli BL21(DE3), N-terminal 6xHis-SUMO tag cut with Ulp1; codon-optimized gene; homodimer (N-terminal HNH, C-terminal SAVED)
T1 sequence (Z9IC27YPF2 1-384 D220A): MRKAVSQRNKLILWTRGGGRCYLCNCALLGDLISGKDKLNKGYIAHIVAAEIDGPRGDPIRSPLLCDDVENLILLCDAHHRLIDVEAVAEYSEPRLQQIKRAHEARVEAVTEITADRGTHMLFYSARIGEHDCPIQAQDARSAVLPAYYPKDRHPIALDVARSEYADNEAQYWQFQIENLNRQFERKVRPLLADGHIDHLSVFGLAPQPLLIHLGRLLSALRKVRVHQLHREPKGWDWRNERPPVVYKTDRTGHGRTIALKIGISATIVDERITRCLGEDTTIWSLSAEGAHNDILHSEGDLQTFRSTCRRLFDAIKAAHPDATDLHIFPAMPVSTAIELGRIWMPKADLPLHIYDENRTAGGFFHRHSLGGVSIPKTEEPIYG
Conditions: activator; 10 nM cGAMP; linearized plasmid 25 nM; 1 mM MgCl2, 0.5 mM MnCl2, pH 7.4, 37 °C, 15 min.

Test [2] has as its target T2, AsCap5 (Asticcacaulis sp., UniProt Z9IC27YPF2, K347R).
T2 construct: full length; E. coli BL21(DE3), N-terminal 6xHis-SUMO tag cut with Ulp1; codon-optimized gene; homodimer (N-terminal HNH, C-terminal SAVED)
T2 sequence (Z9IC27YPF2 1-384 K347R): T1 sequence (Z9IC27YPF2 1-384 D220A) with A220D, K347R
Conditions: activator; 10 nM cGAMP; linearized plasmid 25 nM; 1 mM MgCl2, 0.5 mM MnCl2, pH 7.4, 37 °C, 15 min.

Test [3] has as its target T3, AsCap5 (Asticcacaulis sp., UniProt Z9IC27YPF2, D349A).
T3 construct: full length; E. coli BL21(DE3), N-terminal 6xHis-SUMO tag cut with Ulp1; codon-optimized gene; homodimer (N-terminal HNH, C-terminal SAVED)
T3 sequence (Z9IC27YPF2 1-384 D349A): T1 sequence (Z9IC27YPF2 1-384 D220A) with A220D, D349A
Conditions: activator; 10 nM cGAMP; linearized plasmid 25 nM; 1 mM MgCl2, 0.5 mM MnCl2, pH 7.4, 37 °C, 15 min.

Test [4] addresses T4, AsCap5 (Asticcacaulis sp., UniProt Z9IC27YPF2, K347Q).
T4 construct: full length; E. coli BL21(DE3), N-terminal 6xHis-SUMO tag cut with Ulp1; codon-optimized gene; homodimer (N-terminal HNH, C-terminal SAVED)
T4 sequence (Z9IC27YPF2 1-384 K347Q): T1 sequence (Z9IC27YPF2 1-384 D220A) with A220D, K347Q
Conditions: activator; 10 nM cGAMP; linearized plasmid 25 nM; 1 mM MgCl2, 0.5 mM MnCl2, pH 7.4, 37 °C, 15 min.

For test [5], the target named is T5, AsCap5 (Asticcacaulis sp., UniProt Z9IC27YPF2, R310Q).
T5 construct: full length; E. coli BL21(DE3), N-terminal 6xHis-SUMO tag cut with Ulp1; codon-optimized gene; homodimer (N-terminal HNH, C-terminal SAVED)
T5 sequence (Z9IC27YPF2 1-384 R310Q): T1 sequence (Z9IC27YPF2 1-384 D220A) with A220D, R310Q
Conditions: activator; 10 nM cGAMP; linearized plasmid 25 nM; 1 mM MgCl2, 0.5 mM MnCl2, pH 7.4, 37 °C, 15 min.

Test [6] concerns the target T6, LlCap5 (Lactococcus cremoris, UniProt A0A1E7G0A2).
T6 construct: gene AJ89_14580; full length; E. coli BL21(DE3), N-terminal 6xHis-SUMO tag cut with Ulp1; codon-optimized gene; homodimer (N-terminal HNH, C-terminal SAVED)
Conditions: activator; 50 nM Cap5, linearized plasmid 25 nM; 1 mM MgCl2, 0.5 mM MnCl2, pH 7.4, 37 °C, 15 min; 10-fold dilution steps.

Test [7] addresses T7, AsCap5 (Asticcacaulis sp., UniProt Z9IC27YPF2, R310K).
T7 construct: full length; E. coli BL21(DE3), N-terminal 6xHis-SUMO tag cut with Ulp1; codon-optimized gene; homodimer (N-terminal HNH, C-terminal SAVED)
T7 sequence (Z9IC27YPF2 1-384 R310K): T1 sequence (Z9IC27YPF2 1-384 D220A) with A220D, R310K
Conditions: activator; 10 nM cGAMP; linearized plasmid 25 nM; 1 mM MgCl2, 0.5 mM MnCl2, pH 7.4, 37 °C, 15 min.

Test [8] concerns the target T8, AsCap5 (Asticcacaulis sp., UniProt Z9IC27YPF2, K347A).
T8 construct: full length; E. coli BL21(DE3), N-terminal 6xHis-SUMO tag cut with Ulp1; codon-optimized gene; homodimer (N-terminal HNH, C-terminal SAVED)
T8 sequence (Z9IC27YPF2 1-384 K347A): T1 sequence (Z9IC27YPF2 1-384 D220A) with A220D, K347A
Conditions: activator; 10 nM cGAMP; linearized plasmid 25 nM; 1 mM MgCl2, 0.5 mM MnCl2, pH 7.4, 37 °C, 15 min.

Test [9] concerns the target T9, AsCap5 (Asticcacaulis sp., UniProt Z9IC27YPF2).
T9 construct: full length; E. coli BL21(DE3), N-terminal 6xHis-SUMO tag cut with Ulp1; codon-optimized gene; homodimer (N-terminal HNH, C-terminal SAVED)
T9 sequence (Z9IC27YPF2 1-384): T1 sequence (Z9IC27YPF2 1-384 D220A) with A220D
Conditions: activator; 50 nM Cap5, linearized plasmid 25 nM; 1 mM MgCl2, 0.5 mM MnCl2, pH 7.4, 37 °C, 15 min; 10-fold dilution steps.

Test [10] deals with T9, AsCap5. Conditions: activator; 50 nM Cap5, linearized plasmid 25 nM; 1 mM MgCl2, 0.5 mM MnCl2, pH 7.4, 37 °C, 15 min; 10-fold dilution steps. The source holds these as a separate data set.
Test [11] has as its target T6, LlCap5. Conditions: activator; 50 nM Cap5, linearized plasmid 25 nM; 1 mM MgCl2, 0.5 mM MnCl2, pH 7.4, 37 °C, 15 min; 10-fold dilution steps. This is another data set of the same source.

T6 sequence (A0A1E7G0A2 entry or part of it): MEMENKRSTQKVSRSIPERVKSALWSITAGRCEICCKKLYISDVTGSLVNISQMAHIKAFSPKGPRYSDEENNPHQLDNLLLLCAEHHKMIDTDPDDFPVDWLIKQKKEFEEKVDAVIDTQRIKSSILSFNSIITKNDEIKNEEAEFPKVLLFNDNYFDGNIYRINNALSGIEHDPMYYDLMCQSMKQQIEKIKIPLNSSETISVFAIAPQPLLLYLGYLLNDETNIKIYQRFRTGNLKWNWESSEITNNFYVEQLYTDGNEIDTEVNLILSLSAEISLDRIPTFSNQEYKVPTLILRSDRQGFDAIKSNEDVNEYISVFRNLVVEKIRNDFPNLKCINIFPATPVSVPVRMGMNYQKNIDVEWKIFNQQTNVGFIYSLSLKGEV

In the case of `Nc1nc2c(ncn2[C@@H]2O[C@@H]3COP(=O)(O)O[C@@H]4[C@H](O)[C@@H](COP(=O)(O)O[C@H]3[C@H]2O)O[C@H]4n2cnc3c(N)ncnc32)c(=O)[nH]1` [3′,2′-cGAMP], the “estimated activity (% of wild type)” value at AsCap5 [1] is ~ 15%. For the same compound, the “fold less active than wild type” value on AsCap5 [2] is on record as ~ 10 fold. The estimated activity result is “D349A mutation showed a similar degree of reduced activity as D220A mutation” at AsCap5 [3]; “it was even less active than K347A mutant” at AsCap5 [4]; “R310K and R310Q mutants, and both also showed significantly reduced activities” on AsCap5 [5]; “R310K and R310Q mutants, and both also showed significantly reduced activities” at AsCap5 [7]. Besides, the “concentration giving significant DNA degradation” value at LlCap5 [6] and on AsCap5 [9] was ~ 10 nM throughout. Also, at AsCap5 [8], the “% reduction of activity” value is reported as ~ 98%.

On to `Nc1nc2c(ncn2[C@@H]2O[C@@H]3COP(=O)(O)O[C@H]4[C@@H](O)[C@H](n5cnc6c(N)ncnc65)O[C@@H]4COP(=O)(O)O[C@H]3[C@H]2O)c(=O)[nH]1` [3′,3′-cGAMP], for which the “concentration giving same degradation as 10 nM 3′,2′-cGAMP” value at AsCap5 [10] and at LlCap5 [11] was ~ 100 μM each time.
